Patent US20260355330A1, “CELL PENETRATING PEPTIDES AND USES THEREOF” (VECTIOPEP OÜ, priority 2022, published 2026)

Key:
spleen of BALB/c mice = assay: In vivo delivery of mRNA with CPPs - reporter levels in the spleen
How it was run: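 CPP/mRNA complexes were formed at the indicated charge ratios in water for 30 min at room temperature, using 10 or 50 μg mRNA, then brought to 5% glucose. Complexes were injected intravenously via the tail vein into BALB/c mice. Spleens were harvested 16 h after the single injection, and luciferase (RLU) was measured in whole-tissue homogenate.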

[1] = tested on: liver, spleen, lung, kidney, heart and thymus of Balb/c mice; assay: Biodistribution of reporter levels post-transfection of mRNA or pDNA with CPPs in vivo (tissue homogenate)
Description: FIG. 3: Biodistribution of reporter levels post-transfection of mRNA or pDNA with NFs or PFs CPPs in vivo. Reporter gene product levels were evaluated from the whole tissue homogenates collected post mortem. Results are shown as the fold change to mRNA or pDNA treated mice.
The transfection complexes (CPP/mRNA) were formed using 10 μg of mRNA mixed with each peptide at indicated charge ratios (CRs) in MQ water in a final volume of 100 μl. CRs were calculated theoretically and account for both the positive charges of the peptide and negative charges of the nucleic acid. The transfection complexes (CPP/mRNA and CPP/pDNA) were formed using 50 μg of mRNA mixed with each peptide at indicated charge ratios (CRs) in MQ water in a final volume of 168 μl. The complexes were incubated for 30 minutes at room temperature and then mixed with equal volume of 10% glucose (resulting in a final solution of 5% glucose in a total volume of 200 μl for 10 μg dose groups and 336 μl for 50 μg dose groups) and immediately injected intravenously via the tail vein.
The reporter gene (luciferase) expression levels were evaluated from the tissue homogenate post mortem 16-24 h after single injection.
In order to determine to which organs in vivo mRNAs may be delivered to with NickFect or PepFect CPPs, mRNA complexes with NF55, NF71 and PF14 were formed and injected through the tail vein of Balb/c mice (FIG. 3A). The organs were harvested 24 hours after the single injection and reporter signal was measured from whole tissue homogenates. The biodistribution of reporter levels was measured in liver, spleen, lung, kidney, heart and thymus.
In order to compare the biodistribution profiles between harvested organs when using either mRNA or pDNA as cargo, NF424 was used to transfect these 2 types of nucleic acids in vivo (FIG. 3B and Table 4).

CHO-K1 cells [2] = assay: Delivery of reporter mRNA with CPPs in cell culture (luciferase luminescence 24 h post-transfection); format: cell-based
How it was run: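 CHO-K1 cells (10,000/well) transfected in 10% FBS DMEM with 0.1 μg firefly luciferase mRNA complexed with CPP at 3:1 charge ratio (peptide excess). Luminescence read in lysates 24 h later, normalised to BCA total protein (RLU/mg).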

[3] = in words; previously reported; cited from earlier work
CHO-K1 cells [4] = assay: Comparison of reporter levels in cells post-transfection of pDNA or mRNA delivered by CPPs; format: cell-based; settings: in words; mRNA cargo; FIG. 2
Description: FIG. 2: Comparison of reporter levels in cells post-transfection of pDNA or mRNA delivered by CPPs (P14, NF55 and NF71; relative light units normalised to total protein in the cell lysate (RLU/mg)). Naked mRNA and untreated cells (UT) were used as controls.
Adherent CHO-K1 cells were grown in Dulbecco's Modified Eagle's Medium (DMEM), which were supplemented with 0.1 mM non-essential amino acids, 1.0 mM sodium pyruvate, 100 U/ml penicillin, and […]. For complete media, 10% (final) fetal bovine serum (FBS) was added. Cells were maintained in a humidified incubator at 37 °C, 5% CO2. Cell viability and confluence was assessed daily and the cell density was reduced regularly. For cell counting, we used the CytoSMART cell counter accompanied by 0.4% trypan blue staining prior measurement. The multi-well plates with cell cultures used for experiments were incubated in a humidified incubator at 37 °C, 5% CO2.
For in vitro experiments 0.1 μg of nucleic acid (plasmid DNA (pDNA) or mRNA) was used per 96-well plate well. For CPP/NA complex formation, the diluted NA was mixed with CPP in water. Complexes were formed based on the theoretical charge ratio (CR) of positive charges from the peptide in excess to the negative charges from nucleic acid backbone, at charge ratio 3:1 with peptide in excess. […]
For reporter luminescence (expressed from firefly luciferase encoding mRNA or plasmid pDNA) assessment in adherent cell culture, 10,000 cells per 96-well plate well were seeded in 100 μl of media one day prior to transfection. […]
24 hours post-transfection, the media was aspirated, cells were washed with 1×PBS, and 30 μl of lysis buffer (0.1% Triton X100 in 1×PBS) was added. […] From the lysate, 20 μl was transferred to a black frame white well 96-well plate for luminescence measurement after addition of substrate luciferin (PerkinElmer) in buffer. The luminescence signal was detected with GloMax® 96 microplate luminometer equipped with GloMax® 1.9.2 software (Promega). […]

[5] = mRNA delivery, i.v. tail vein, 24 h after single injection, FIG. 3: fold change to mRNA or pDNA treated mice

CCCCCCCCCCCCCCCCCC(=O)N[C@@H](C)C(=O)NCC(=O)N[C@@H](Cc1ccc(O)cc1)C(=O)N[C@@H](CC(C)C)C(=O)N[C@@H](CC(C)C)C(=O)NCC(=O)NCCC[C@H](N)C(=O)N[C@H](C(=O)N[C@@H](CC(N)=O)C(=O)N[C@@H](CC(C)C)C(=O)N[C@@H](CCCCN)C(=O)N[C@@H](C)C(=O)N[C@@H](CC(C)C)C(=O)N[C@@H](C)C(=O)N[C@@H](C)C(=O)N[C@@H](CC(C)C)C(=O)N[C@@H](C)C(=O)N[C@@H](CCCCN)C(=O)N[C@@H](C)C(=O)N[C@H](C(=O)N[C@@H](CC(C)C)C(N)=O)[C@@H](C)CC)[C@@H](C)CC [NF55]
Efficacy of mRNA delivery into the spleen in vivo (spleen of BALB/c mice; in words, FIG. 5 / Table 5): delivered mRNA into the spleen in vivo with high efficacy
Reporter levels in the spleen (RLU) (spleen of BALB/c mice; mRNA, tail vein injection, spleens harvested 16 hours after single injection, whole tissue homogenate): 124 363 RLU
Organ distribution of mRNA delivery ([1]; in words, mRNA cargo): much higher than in any other organ
Reporter level, Liver [1, 5]: 284
Reporter level, Lung [1, 5]: 23 465
Reporter level, Spleen [1, 5]: 79 879
Delivery of mRNA to the spleen relative to delivery to the lungs ([1]; mRNA, 24 h after single i.v. injection): 3.5 times
Average RLU/mg (reporter levels post-transfection of mRNA) (CHO-K1 cells [2]; firefly luciferase mRNA, 0.1 μg per well, charge ratio 3:1, serum containing media, 24 h, RLU normalised to total protein in lysate): 1 270 000 000 RLU/mg
Efficiency of mRNA transfection/delivery (CHO-K1 cells [2]; in words, FIG. 1 / Table 2, cell culture): the most efficient
pDNA delivery efficiency [3]: excellent vector for the delivery of DNA in vivo
Efficiency of mRNA transfection (parallel pDNA/mRNA comparison) (CHO-K1 cells [4]): very efficient for mRNA transfection
